Test results reported in patent US20250387400A1, “TYK2 INHIBITORS” (BIOGEN MA INC., priority 2022, published 2025).
Read-outs that look alike come from different tables or passages of the source.

Experiments:
Format in all cases: biochemical
[1] = molecular target: T1, catalytic kinase (JH1) domain of human JAK1 (Homo sapiens, UniProt P23458); assay: ADP-Glo kinase assay, JAK1 kinase domain
T1 construct: 4 nM of recombinant JAK1 kinase domain is used to phosphorylate
Protocol: (§1) As summarized in Table 3 below, compounds of the disclosure were assessed for their ability to inhibit TYK2, JAK1, JAK2, and JAK3 activity.
(§2) The kinase activity of recombinantly generated catalytic kinase (also known as JH1) domain of human JAK1, JAK2, JAK3 and TYK2 were evaluated in a plate-based assay using the ADP-Glo™ Kinase Assay platform. […] The reactions proceed for 100 minutes and the catalytic activity is quantified by first depleting the unused ATP, converting the hydrolyzed ADP into ATP to generate luminescence in a luciferase reaction; which is the basis of the ADP-Glo platform. Compounds are tested at either 10 μM or 1 μM top concentration, 11 points of 3-fold dilution. The data is normalized and the percent activity versus log concentration of compound is fitted with a 4-parameter logistic model to generate a curve and an IC50 value.

[2] = molecular target: T2, catalytic kinase (JH1) domain of human JAK3 (Homo sapiens, UniProt P52333); assay: ADP-Glo kinase assay, JAK3 kinase domain
T2 construct: Catalytic activities of recombinant JAK2, JAK3 and TYK2 kinase domain
Protocol: as §1, §2

[3] = molecular target: T3, catalytic kinase (JH1) domain of human TYK2 (Homo sapiens, UniProt P29597); assay: ADP-Glo kinase assay, TYK2 kinase domain
T3 construct: recombinantly generated catalytic kinase (also known as JH1) domain of human JAK1, JAK2, JAK3 and TYK2
T3 sequence (P29597 897-1176 limits assumed): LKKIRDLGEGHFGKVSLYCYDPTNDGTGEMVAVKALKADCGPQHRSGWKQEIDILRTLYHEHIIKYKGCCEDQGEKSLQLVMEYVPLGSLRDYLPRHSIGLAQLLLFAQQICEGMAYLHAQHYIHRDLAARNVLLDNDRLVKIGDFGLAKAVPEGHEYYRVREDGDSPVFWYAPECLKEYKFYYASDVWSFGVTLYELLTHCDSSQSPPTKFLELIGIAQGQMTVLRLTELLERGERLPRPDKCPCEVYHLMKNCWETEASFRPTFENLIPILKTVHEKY
Protocol: as §1, §2

[4] = molecular target: T4, catalytic kinase (JH1) domain of human JAK2 (Homo sapiens, UniProt O60674); assay: ADP-Glo kinase assay, JAK2 kinase domain
T4 construct: Catalytic activities of recombinant JAK2, JAK3 and TYK2 kinase domain
Protocol: as §1, §2

[5] = 4 nM recombinant JAK1 kinase domain, 50 μM JAK3-342 peptide, 35 μM ATP, 100 minutes, read-out: JAK1 biochem IC50 (nM) Mean
[6] = 0.3 nM recombinant JAK3 kinase domain, 50 μM JAK3-974 peptide, 4 μM ATP, 100 minutes, read-out: JAK3 biochem IC50 (nM) Mean
[7] = 2 nM recombinant TYK2 kinase domain, 50 μM JAK3-974 peptide, 10 μM ATP, 100 minutes, read-out: TYK2 biochem IC50 (nM) Mean
[8] = 0.2 nM recombinant JAK2 kinase domain, 50 μM JAK3-974 peptide, 15 μM ATP, 100 minutes, read-out: JAK2 biochem IC50 (nM) Mean

T2 sequence (P52333 822-1111 limits assumed): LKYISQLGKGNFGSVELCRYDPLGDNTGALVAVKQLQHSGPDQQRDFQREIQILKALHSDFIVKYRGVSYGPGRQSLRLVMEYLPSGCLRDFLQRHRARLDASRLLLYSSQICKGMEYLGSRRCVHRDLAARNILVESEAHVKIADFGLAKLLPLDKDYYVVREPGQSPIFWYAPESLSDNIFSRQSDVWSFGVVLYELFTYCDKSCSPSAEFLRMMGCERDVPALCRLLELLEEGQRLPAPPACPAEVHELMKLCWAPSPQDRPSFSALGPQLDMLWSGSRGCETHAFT
T4 sequence (O60674 849-1124 limits assumed): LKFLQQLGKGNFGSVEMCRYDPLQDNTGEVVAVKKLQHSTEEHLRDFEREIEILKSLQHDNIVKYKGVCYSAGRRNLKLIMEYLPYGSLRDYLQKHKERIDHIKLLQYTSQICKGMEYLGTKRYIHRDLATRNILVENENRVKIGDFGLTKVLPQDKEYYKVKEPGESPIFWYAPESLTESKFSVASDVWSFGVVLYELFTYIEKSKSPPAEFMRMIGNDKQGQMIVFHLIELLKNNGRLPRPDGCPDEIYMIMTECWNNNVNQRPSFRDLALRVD
T1 sequence (P23458 875-1153 limits assumed): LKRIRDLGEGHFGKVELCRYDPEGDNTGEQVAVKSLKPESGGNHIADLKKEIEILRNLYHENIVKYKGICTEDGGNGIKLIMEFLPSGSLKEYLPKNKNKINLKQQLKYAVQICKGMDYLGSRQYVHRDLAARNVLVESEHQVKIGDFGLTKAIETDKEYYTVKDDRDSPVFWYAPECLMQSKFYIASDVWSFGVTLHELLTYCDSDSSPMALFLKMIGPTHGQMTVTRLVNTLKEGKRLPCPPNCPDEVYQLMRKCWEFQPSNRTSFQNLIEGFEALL

Row | Structure (SMILES) | IC50 [1] [nM] | IC50 [2] [nM] | IC50 [3] [nM] | IC50 [4] [nM] | IC50 [1, 5] [nM] | IC50 [2, 6] [nM] | IC50 [3, 7] [nM] | IC50 [4, 8] [nM]
1 | Cn1cc(-c2cc3c(N4CC5CCC(C4)N5C4CCC4)ccnn3c2)cn1 [Example 26, 4-(8-cyclobutyl-3,8-diazabicyclo[3.2.1]octan-3-y1)-6-(1-methyl-1H-pyrazol-4-yl)pyrrolo[1,2-b]pyridazine] | 6100 | > 10000 | 195 | 3300 | – | – | – | –
2 | Cn1cc(-c2cc3c(N4CC5CCC(C4)N5[C@H]4C[C@@H](CC#N)C4)ccnn3c2)cn1 [Example 44, 2-((1s,3s)-3-(3-(6-(1-methyl-1H-pyrazol-4-yl)pyrrolo[1,2-b]pyridazin-4-yl)-3,8-diazabicyclo[3.2.1]octan-8-yl)cyclobutyl)acetonitrile] | – | – | – | – | 1700 | 3550 | 82 | 900
3 | Cn1cc(-c2cc3c(N4CC5CCC(C4)N5C4COC4)ccnn3c2)cn1 [Example 23, 6-(1-methyl-1H-pyrazol-4-yl)-4-(8-(oxetan-3-y1)-3,8-diazabicyclo[3.2.1]octan-3-yl)pyrrolo[1,2-b]pyridazine] | – | – | – | – | 310 | 2150 | 14.5 | 185
4 | Cn1cc(-c2nc3c(N4CC5CCC(C4)N5[C@H]4C[C@@](C)(C#N)C4)ccnc3[nH]2)cn1 [Example 2, (1S,3s)-1-methyl-3-(3-(2-(1-methyl-1H-pyrazol-4-yl)-3H-imidazo[4,5-b]pyridin-7-yl)-3,8-diazabicyclo[3.2.1]octan-8-yl)cyclobutane-1-carbonitrile] | – | – | – | – | 14.7 | 68 | 1.2 | 9
5 | COCC[C@]1(C#N)C[C@@H](N2C3CCC2CN(c2ccnn4cc(-c5cnn(C)c5)cc24)C3)C1 [Example 39, (1s,3s)-1-(2-methoxyethyl)-3-(3-(6-(1-methyl-1H-pyrazol-4-yl)pyrrolo[1,2-b]pyridazin-4-yl)-3,8-diazabicyclo[3.2.1]octan-8-yl)cyclobutane-1-carbonitrile] | – | – | – | – | 88 | 460 | 6.95 | 54
6 | Cn1cc(-c2cc3c(N4CC5CCC(C4)N5[C@H]4C[C@](C)(C#N)C4)ccnn3c2)cn1 [Example 34, (1r,3r)-1-methyl-3-(3-(6-(1-methyl-1H-pyrazol-4-yl)pyrrolo[1,2-b]pyridazin-4-yl)-3,8-diazabicyclo[3.2.1]octan-8-yl)cyclobutane-1-carbonitrile] | – | – | – | – | 720 | 2550 | 23 | 295
7 | Cn1cc(-c2nc3c(N4CC5CCC(C4)N5[C@H]4CC[C@H]4O)ccnc3[nH]2)cn1 (racemic) [Example 8, (1RS,2SR)-2-(3-(2-(1-methyl-1H-pyrazol-4-yl)-3H-imidazo[4,5-b]pyridin-7-yl)-3,8-diazabicyclo[3.2.1]octan-8-yl)cyclobutan-1-ol] | – | – | – | – | 7100 | > 10000 | 830 | 3150
8 | Cn1cc(-c2nc3c(N4C[C@H]5CC[C@@H](C4)N5C4CC(C(F)F)C4)ccnc3[nH]2)cn1 (stereo partly drawn) [Example 10, 7-((1R,5S)-8-(3-(difluoromethyl)cyclobutyl)-3,8-diazabicyclo[3.2.1]octan-3-yl)-2-(1-methyl-1H-pyrazol-4-yl)-3H-imidazo[4,5-b]pyridine] | – | – | – | – | 340 | 1350 | 226 | 180
9 | COc1cc(-c2cc3c(N4CC5CCC(C4)N5C4CC(C(F)F)C4)ccnc3[nH]2)ccn1 (stereo not drawn) [Example 19, 4-(8-(3-(difluoromethyl)cyclobutyl)-3,8-diazabicyclo[3.2.1]octan-3-yl)-2-(2-methoxypyridin-4-yl)-1H-pyrrolo[2,3-b]pyridine] | – | – | – | – | 68 | 785 | 40.5 | 115
10 | COc1cc(-c2cc3c(N4CC5CCC(C4)N5[C@H]4C[C@H](C#N)C4)ccnc3[nH]2)ccn1 [Example 15, (1R,3r)-3-(3-(2-(2-methoxypyridin-4-yl)-1H-pyrrolo[2,3-b]pyridin-4-yl)-3,8-diazabicyclo[3.2.1]octan-8-yl)cyclobutane-1-carbonitrile] | 13.7 | 74.3 | 2.13 | 15 | – | – | – | –
11 | Cc1cc(-c2cc3c(N4CC5CCC(C4)N5[C@H]4C[C@H](C#N)C4)ccnn3c2)on1 [Example 58, (1R,3r)-3-(3-(6-(3-methylisoxazol-5-yl)pyrrolo[1,2-b]pyridazin-4-yl)-3,8-diazabicyclo[3.2.1]octan-8-yl)cyclobutane-1-carbonitrile] | 795 | 3450 | 40.5 | 385 | – | – | – | –
12 | Cn1cc(-c2cn3nccc(N4CC5CCC(C4)N5[C@H]4C[C@H](C#N)C4)c3n2)cn1 [Example 66, (1R,3r)-3-(3-(2-(1-methyl-1H-pyrazol-4-yl)imidazo[1,2-b]pyridazin-8-yl)-3,8-diazabicyclo[3.2.1]octan-8-yl)cyclobutane-1-carbonitrile] | 15.1 | 102 | 3.83 | 21.3 | – | – | – | –
13 | Cn1cc(-c2nc3c(N4CC5CCC(C4)N5[C@H]4C[C@@H](C#N)C4)ccnc3[nH]2)cn1 [Example 4, (1S,3s)-3-(3-(2-(1-methyl-1H-pyrazol-4-yl)-3H-imidazo[4,5-b]pyridin-7-yl)-3,8-diazabicyclo[3.2.1]octan-8-yl)cyclobutane-1-carbonitrile] | – | – | – | – | 18.7 | 65.3 | 2.47 | 9.93
14 | Cn1cc(-c2cc3c(N4CC5CCC(C4)N5[C@H]4C[C@@H](C#N)C4)ncnc3[nH]2)cn1 [Example 64, (1S,3s)-3-(3-(6-(1-methyl-1H-pyrazol-4-yl)-7H-pyrrolo[2,3-d]pyrimidin-4-yl)-3,8-diazabicyclo[3.2.1]octan-8-yl)cyclobutane-1-carbonitrile] | – | – | – | – | 340 | 205 | 41.5 | 260
15 | Cn1cc(-c2cc3c(N4CC5CCC(C4)N5C4CC(F)(F)C4)ccnn3c2)cn1 [Example 52, 4-(8-(3,3-difluorocyclobutyl)-3,8-diazabicyclo[3.2.1]octan-3-yl)-6-(1-methyl-1H-pyrazol-4-yl)pyrrolo[1,2-b]pyridazine] | – | – | – | – | 57.2 | 574 | 1.9 | 35
16 | Cn1cc(-c2cc3c(N4CC5CCC(C4)N5[C@H]4CCC45COC5)ccnn3c2)cn1 (single isomer, unassigned) [Example 40] | > 10000 | > 10000 | 320 | 1900 | – | – | – | –
17 | Cn1cc(-c2cn3nccc(N4CC5CCC(C4)N5[C@H]4C[C@@H](C#N)C4)c3n2)cn1 [Example 65, (1S,3s)-3-(3-(2-(1-methyl-1H-pyrazol-4-yl)imidazo[1,2-b]pyridazin-8-yl)-3,8-diazabicyclo[3.2.1]octan-8-yl)cyclobutane-1-carbonitrile] | 227 | 1650 | 70.7 | 293 | – | – | – | –
18 | COc1cc(-c2cc3c(N4CC5CCC(C4)N5C4CC(C#N)C4)ccnc3[nH]2)ccn1 (stereo not drawn) [Example 13, 3-(3-(2-(2-methoxypyridin-4-yl)-1H-pyrrolo[2,3-b]pyridin-4-yl)-3,8-diazabicyclo[3.2.1]octan-8-yl)cyclobutane-1-carbonitrile] | 7.9 | 82 | 4.05 | 14 | – | – | – | –
19 | Cn1cc(-c2cc3c(N4CC5CCC(C4)N5[C@H]4C[C@H](S(C)(=O)=O)C4)ccnn3c2)cn1 [Example 37, 6-(1-methyl-1H-pyrazol-4-yl)-4-(8-((1r,3r)-3-(methylsulfonyl)cyclobutyl)-3,8-diazabicyclo[3.2.1]octan-3-yl)pyrrolo[1,2-b]pyridazine] | 4300 | > 10000 | 310 | 1450 | – | – | – | –
20 | COc1cc(-c2cc3c(N4CC5CCC(C4)N5C4COC4)ccnc3[nH]2)ccn1 [Example 18, 2-(2-methoxypyridin-4-yl)-4-(8-(oxetan-3-yl)-3,8-diazabicyclo[3.2.1]octan-3-yl)-1H-pyrrolo[2,3-b]pyridine] | – | – | – | – | 49.5 | > 1000 | 30.5 | 97
21 | Cn1cc(-c2cc3c(N4CC5CCC(C4)N5C4CC(O)(C(F)(F)F)C4)ccnn3c2)cn1 (stereo not drawn) [Example 22, 3-(3-(6-(1-methyl-1H-pyrazol-4-yl)pyrrolo[1,2-b]pyridazin-4-yl)-3,8-diazabicyclo[3.2.1]octan-8-yl)-1-(trifluoromethyl)cyclobutan-1-ol] | – | – | – | – | 5200 | > 10000 | 305 | 1200
